Laboratory results as given in patent US12156871B2, “Substituted azacycles as muscarinic M1 receptor positive allosteric modulators” (SUVEN LIFE SCIENCES LIMITED, priority 2017, dated 2024).

Experiments:
[1] = Rodent brain penetration study; assay type: in vivo, Male Wistar rats; details: male, Wistar, brain/plasma, po; rat, 3 mg/kg, p.o. @ 1.0 hr; read-out: Single dose Rat Brain Penetration (Cb/Cp)
Method: Male Wistar rats (260±40 grams) were used as experimental animals. Three animals were housed in each cage. Animals were given water and food ad libitum throughout the experiment and maintained on a 12 h light/dark cycle.
Brain penetration was determined in discrete manner in rats. One day prior to dosing day, male Wistar rats were acclimatized and randomly grouped according to their weight. At each time point (0.5, 1 and 2 h) n=3 animals were used.
The test compounds were suitably preformulated and administered orally at (free base equivalent) 3 mg/kg. Blood samples were removed via cardiac puncture by using isoflurane anesthesia. The animals were sacrificed to collect brain tissue. Plasma was separated and brain samples were homogenized and stored frozen at −20° C. until analysis. The concentrations of the test compounds in plasma and brain were determined using LC-MS/MS method.
The test compounds were quantified in plasma and brain homogenate by qualified LC-MS/MS method using suitable extraction technique. The test compounds were quantified in the calibration range of 1-500 ng/mL in plasma and brain homogenate. Study samples were analyzed using calibration samples in the batch and quality control samples spread across the batch.

[2] = Protein binding assay (HT dialysis), human liver microsomes; assay type: in vitro ADME; details: pH 7.4, Human liver microsomes 0.5 mg/mL, Mean ± SEM, n = 3, read-out: Fu Microsomes (converted)
Method: (§1) Unbound fractions of test compounds in plasma, brain homogenate and liver microsomes were determined using high-throughput dialysis (HT dialysis). Briefly, dialysis membranes were soaked in deionized water for 20 minutes and then in deionized water with 30% ethanol for 15 minutes and finally in phosphate buffer until use. Membranes were rinsed in phosphate buffer before assembling. The membranes were layered between teflon bars of dialysis assembly. Stock solutions of test compound/comparative compound were prepared at 10 mM in DMSO, diluted to 1 mM in acetonitrile and further diluted to 100 μM in mixture of water and acetonitrile (1:1 v/v). Human plasma (pool of 3) was prepared from human blood (3 donors) by centrifuging at 4000 rpm for 10 min at 4° C. Rat and dog blood were obtained on the day of the study and centrifuged to obtain plasma. Rat brains were isolated, cleaned and homogenized with 2 volumes of buffer (3 fold dilution). Liver microsomes were prepared at 0.5 mg/mL in phosphate buffer (100 mM, pH 7.4). The dialysate chambers were loaded with 150 μL of 100 mM phosphate buffer (pH 7.4) in triplicates. The matrix chambers were loaded with 150 μL of the plasma or brain homogenate or microsomal suspension spiked with test compound/comparative compound at a final concentration of 1 μM. 50 μL of the sample was removed from both the chambers at 0 h. The plate was sealed and incubated at 37° C. for 6 h at 100 rpm. After 6 h, 50 μL of the sample was removed from both the chambers. Equal volumes of buffer or human plasma/microsomal suspension were added to the plasma/microsomal and buffer samples respectively to create identical sample matrices for analysis. The samples were precipitated with 150 μL of acetonitrile containing fluoxetine as an internal standard. All the samples were centrifuged at 10000 rpm for 10 minutes at 4° C.

[3] = target: T1, human Muscarinic M1 receptor (Homo sapiens, UniProt P11229); test: Allosteric potency EC50 for muscarinic M1 receptor, CHO pCRE-Luc reporter cell assay; assay type: cell-based; details: in presence of EC20 of acetylcholine; CHO cells, luciferase reporter, 4 h
T1 sequence (P11229 1-460): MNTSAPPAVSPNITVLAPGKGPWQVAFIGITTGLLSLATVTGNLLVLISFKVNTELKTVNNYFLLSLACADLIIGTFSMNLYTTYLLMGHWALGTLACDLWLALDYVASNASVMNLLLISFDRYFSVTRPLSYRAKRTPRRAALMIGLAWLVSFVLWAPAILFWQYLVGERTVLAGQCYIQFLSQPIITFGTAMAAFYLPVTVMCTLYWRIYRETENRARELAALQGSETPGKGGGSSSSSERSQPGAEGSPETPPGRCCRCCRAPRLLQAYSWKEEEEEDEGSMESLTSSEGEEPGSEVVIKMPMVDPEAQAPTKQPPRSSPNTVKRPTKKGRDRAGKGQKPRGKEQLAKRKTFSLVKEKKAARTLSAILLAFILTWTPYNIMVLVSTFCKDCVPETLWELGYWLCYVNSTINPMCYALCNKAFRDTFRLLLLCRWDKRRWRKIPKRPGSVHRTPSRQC
Method: A stable CHO cell line expressing recombinant human Muscarinic M1 receptor and pCRE-Luc reporter system was used for cell-based assay. The assay offers a non-radioactive based approach to determine binding of a compound to GPCRs. In this specific assay, the level of intracellular cyclic AMP which is modulated by activation or inhibition of the receptor is measured. The recombinant cells harbor luciferase reporter gene under the control of cAMP response element.
The above cells were grown in 96 well clear bottom white plates in Hams F12 medium containing 10% fetal bovine serum (FBS). Prior to the addition of compounds or standard agonist, cells were serum starved overnight. Increasing concentrations of test compounds were added along with EC20 of acetylcholine in OptiMEM medium to the cells. The incubation was continued at 37° C. in CO2 incubator for 4 h. Medium was removed and cells were washed with phosphate buffered saline. The cells were lysed and luciferase activity was measured in a Luminometer. Luminescence units were plotted against the compound concentrations using Graphpad software. EC50 values of the compounds were defined as the concentration required in stimulating the luciferase activity by 50% in presence of EC20 of acetylcholine.

[4] = Protein binding assay (HT dialysis), dog plasma; assay type: in vitro ADME; details: pH 7.4, Mean ± SEM, n = 3, read-out: Fu Plasma (converted)
Method: as §1

[5] = test system: hippocampal theta oscillations; test: Theta modulation in dorsal hippocampus of anesthetized rats in combination with donepezil; assay type: in vivo, Male Wistar rats; details: in combination with donepezil (0.3 mg/kg, i.v.), test compound 1 mg/kg
Text: Male Wistar rats (240-320 g) were anesthetized by intraperitoneal administration of urethane (1.2 to 1.5 g/kg) for implantation of a catheter in the left femoral vein. The animal was placed in a stereotaxic frame for implanting an electrode (stainless steel wire, Plastics One) into the dorsal hippocampus (AP: 3.8 mm; ML: +2.2 mm; DV: 2.5 mm; Paxinos and Watson, 2004). Bipolar stimulating electrode (untwisted stainless steel wires, separated by 0.75-1.0 mm at their tips, Plastics One) was implanted in the Nucleus Pontis Oralis (NPO; AP: 7.8 mm; ML: 1.8 mm; DV: 6.0 mm; Paxinos and Watson, 2004). Additionally one electrode was implanted into the cerebellum which served as a reference. Hippocampal θ rhythm was evoked via a 6-s electrical stimulation train (20-160 μA, 0.3-ms pulse duration, 250 Hz) delivered to the NPO at a rate of 0.01 trains/s with a Grass S88 stimulator and PSIU6 stimulus isolation unit (Grass Medical Instruments, Quincy, MA). EEG was recorded at a rate of 1000 Hz using Ponemah (Version 5.2) software and stored for off-line analysis using NeuroScore (Version 3.0). […]
Power in the θ rhythm frequency in the stimulation period during the 30-min baseline period was calculated and the % changes in these measures post treatment were calculated. […]

| SMILES | Kp at 1 h [1] | fraction unbound at 6 h, 1 μM [2] | EC50 [3] | fraction unbound at 6 h, 1 μM [4] | effect of combination treatment on θ power compared with donepezil alone ([5]; FIG. 1) | θ power levels ([5]; anesthetized rat) |
| --- | --- | --- | --- | --- | --- | --- |
| COc1ccc(Cc2cc3c(nc2C)CN([C@H]2CCCC[C@@H]2O)C3=O)cc1 [Example 6, 6-(1S,2S-2-Hydroxycyclohexyl)-2-methyl-3-(4-methoxybenzyl)-6,7-dihydropyrrolo[3,4-b]pyridin-5-one] | 0.35 ± 0.08 | 0.938 | 954 nM | 0.115 | – | – |
| COc1cccc(Cc2cc3c(nc2C)CN([C@H]2CCCC[C@@H]2O)C3=O)c1 [Example 38, 6-(1S,2S-2-Hydroxycyclohexyl)-2-methyl-3-(3-methoxybenzyl)-6,7-dihydropyrrolo[3,4-b]pyridin-5-one] | 0.45 ± 0.13 | 0.87 | 2280 nM | 0.116 | significantly higher than the donepezil alone | significant increase |
